We go through one compound from ChEMBL document CHEMBL5729116, “hTRPV1 chemical agents” (2022).

The target of the assay is Transient receptor potential cation channel subfamily V member 1 (Homo sapiens, UniProt Q8NER1). Put plainly: RTX Competition Binding Assay.: Binding studies with [3H]RTX were carried out as follows. The binding assay mixtures were prepared in 1.5 ml centrifuge tubes and consisted of a fixed concentration (approximately 2 nM) of [3H]RTX (37 Ci/mmol specific activity, PerkinElmer Life Sciences), various concentrations of competing ligands, and […] of membranes from induced CHO-hTRPV1 expressing cells (approximately 1-3×10^6 cells) in Dulbecco's phosphate buffered saline (DPBS, with Ca2+ & Mg2+) for a total volume of 350 μl. The assay mix contained bovine serum albumin at a final concentration of 0.25 mg/ml (Cohn fraction V; Sigma-Aldrich, St. Louis, Mo.). In each set of experiments, nonspecific binding were determined in the presence of 200 nM non-radioactive RTX. The binding reaction was initiated by placing the assay mixture in a 37° C. shaking water bath for 60 minutes (−30 rpm). The assay mixture was then chilled on ice for 2-3 min before adding 100 μl of α1-acid glycoprotein (2 mg/ml; Sigma-Aldrich) and mixed thoroughly. The tubes were kept on ice for an additional 10 min. The bound and free ligands were then separated by centrifugation (12,200 rpm for 15 minutes) in a Beckman Coulter centrifuge Allegra 21R. 200 μl of supernatant was collected for determination of free ligand. The remainder was removed by aspiration.
Transient receptor potential cation channel subfamily V member 1, sequence (Q8NER1 whole entry): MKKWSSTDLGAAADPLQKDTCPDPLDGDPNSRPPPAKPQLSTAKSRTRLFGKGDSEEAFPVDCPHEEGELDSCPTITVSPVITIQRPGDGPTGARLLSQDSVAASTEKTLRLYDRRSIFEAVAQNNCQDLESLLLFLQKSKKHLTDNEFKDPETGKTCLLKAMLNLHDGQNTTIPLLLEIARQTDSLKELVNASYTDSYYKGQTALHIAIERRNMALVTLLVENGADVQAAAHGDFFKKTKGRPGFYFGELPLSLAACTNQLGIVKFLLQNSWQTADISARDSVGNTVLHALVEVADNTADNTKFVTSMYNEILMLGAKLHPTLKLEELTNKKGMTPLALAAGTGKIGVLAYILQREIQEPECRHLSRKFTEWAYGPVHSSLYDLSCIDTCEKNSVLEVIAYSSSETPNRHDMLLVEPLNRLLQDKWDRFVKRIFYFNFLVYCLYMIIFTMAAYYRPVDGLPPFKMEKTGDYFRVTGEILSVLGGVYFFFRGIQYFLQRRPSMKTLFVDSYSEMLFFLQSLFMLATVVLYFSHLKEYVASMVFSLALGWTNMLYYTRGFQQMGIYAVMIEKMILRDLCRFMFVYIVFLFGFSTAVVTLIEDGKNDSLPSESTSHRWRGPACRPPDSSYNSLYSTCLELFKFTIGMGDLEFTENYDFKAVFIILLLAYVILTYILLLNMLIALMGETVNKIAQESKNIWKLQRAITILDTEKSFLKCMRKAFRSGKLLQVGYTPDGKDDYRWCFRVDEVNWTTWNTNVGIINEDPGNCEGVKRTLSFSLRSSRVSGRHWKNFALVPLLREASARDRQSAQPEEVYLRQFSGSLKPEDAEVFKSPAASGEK

`O=C(Nc1cccc(C(F)(F)F)c1)Nc1ccc([N+](=O)[O-])cc1Cl`: the Ki worked out at 2570 nM.

As a reminder, the Ki is a measure of affinity in units of concentration, obtained from inhibition or displacement.
